ChEMBL document CHEMBL2040731, “Synthesis and anti-HIV activity of lupane and olean-18-ene derivatives. Absolute configuration of 19,20-epoxylupanes by VCD” (J Nat Prod, 2012)
Calls of active or inactive are those of the source. The calls are words filed in the database; no cut-off is given here.

Experiments:
HeLa [1] = assay: Inhibition of R5-tropic HIV1 envelope glycoprotein-mediated cell-cell fusion between viral envelope expressing human virus-infected HeLa ADA cells to human HeLa P5 cells at 5 uM after 16 hrs by beta-galactosidase reporter gene assay using chemiluminescence method; type: cell-based; conditions: Human immunodeficiency virus 1
HeLa [2] = assay: Inhibition of X4-tropic HIV1 envelope glycoprotein-mediated cell-cell fusion between viral envelope expressing human virus-infected HeLa ADA cells to human HeLa P5 cells at 5 uM after 16 hrs by beta-galactosidase reporter gene assay using chemiluminescence method; type: cell-based; conditions: Human immunodeficiency virus 1

Structure (SMILES)	inhibition (HeLa [1])	inhibition (HeLa [2])
C=C(C)[C@@H]1CC[C@]2(C)CC[C@]3(C)[C@H](CC[C@@H]4[C@@]5(C)CC[C@H](O)C(C)(C)[C@@H]5CC[C@]43C)[C@@H]12	inactive	inactive
C=C(C=O)[C@@H]1CC[C@]2(C)CC[C@]3(C)[C@H](CC[C@@H]4[C@@]5(C)C=CC(=O)C(C)(C)[C@@H]5CC[C@]43C)[C@@H]12	28%	44%
CC(=O)O[C@H]1CC[C@]2(C)[C@H]3CC[C@@H]4[C@H]5[C@H]([C@@]6(C)CO6)CC[C@]5(C)CC[C@@]4(C)[C@]3(C)CC[C@H]2C1(C)C	26%	6%
CC1(C)C=C2[C@H]3CC[C@@H]4[C@@]5(C)CC[C@H](O)C(C)(C)[C@@H]5CC[C@@]4(C)[C@]3(C)CC[C@@]2(C)CC1	inactive	inactive
CC(=O)O[C@H]1CC[C@]2(C)[C@H]3CC[C@@H]4[C@]56O[C@H]5C(C)(C)CC[C@]6(C)CC[C@@]4(C)[C@]3(C)CC[C@H]2C1(C)C	inactive	inactive
C=C(C=O)[C@@H]1CC[C@]2(CO)CC[C@]3(C)[C@H](CC[C@@H]4[C@@]5(C)CC[C@H](O)C(C)(C)[C@@H]5CC[C@]43C)[C@@H]12	26%	10%
C=C(C)[C@@H]1CC[C@]2(C)CC[C@]3(C)[C@H](CC[C@@H]4[C@@]5(C)CCC(=O)C(C)(C)[C@@H]5CC[C@]43C)[C@@H]12	inactive	inactive
C=C(C)[C@@H]1CC[C@]2(C)CC[C@]3(C)[C@H](CC[C@@H]4[C@@]5(C)CC/C(=N\O)C(C)(C)[C@@H]5CC[C@]43C)[C@@H]12	7%	23%
C=C(C)[C@@H]1CC[C@]2(CO)CC[C@]3(C)[C@H](CC[C@@H]4[C@@]5(C)CC[C@H](O)C(C)(C)[C@@H]5CC[C@]43C)[C@@H]12	17%	34%
C=C(C)[C@@H]1CC[C@]2(C)CC[C@]3(C)[C@H](CC[C@@H]4[C@@]5(C)CC[C@H](OC(C)=O)C(C)(C)[C@@H]5CC[C@]43C)[C@@H]12	31%	15%
C=C(C=O)[C@@H]1CC[C@]2(C)CC[C@]3(C)[C@H](CC[C@@H]4[C@@]5(C)CC[C@H](OC(C)=O)C(C)(C)[C@@H]5CC[C@]43C)[C@@H]12	41%	6%
C=C(C=O)[C@@H]1CC[C@]2(C)CC[C@]3(C)[C@H](CC[C@@H]4[C@@]5(C)CC[C@H](O)C(C)(C)[C@@H]5CC[C@]43C)[C@@H]12	inactive	inactive
